Values of other authors as cited in US7575768B2, “Dietary supplements and prepared foods containing triglyceride-recrystallized non-esterified phytosterols” (Brandeis University, priority 2005, dated 2009).

Tested on: humans

Structure (SMILES) | lowering of serum cholesterol (12-18 g per day in divided doses, males with atherosclerosis) | decrease of plasma cholesterol level (9-18 grams per day, coarse powdered form)
CC[C@H](CC[C@@H](C)[C@H]1CC[C@H]2[C@@H]3CC=C4C[C@@H](O)CC[C@]4(C)[C@H]3CC[C@]12C)C(C)C [beta sitosterol] | 15-20% | –
CC[C@H](CC[C@@H](C)[C@H]1CC[C@H]2[C@@H]3CC=C4C[C@@H](O)CC[C@]4(C)[C@H]3CC[C@]12C)C(C)C [sitosterol] | – | approximately 15%
